Data as given in the METLIN SMRT retention time set (Domingo-Almenara et al. 2019).

Experiment: gradient 5% acetonitrile 3 min, to 50% in 2 min, to 85% in 15 min, held 3 min, 100 µL/min
Settings: column: Zorbax Extend-C18 2.1 x 50 mm; eluents: water / acetonitrile, 0.1% formic acid
In short: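 Data were gathered over 3 months by HPLC coupled to a quadrupole time-of-flight mass spectrometer, operated in positive and negative ionization mode. Mixtures of ~100 pure standards ran on a Zorbax Extend-C18 column (2.1 × 50 mm, 1.8 μm) at 100 μL/min, with water and acetonitrile each containing 0.1% formic acid and dead and dwell volumes of 40 μL and 900 μL. Retention time was read from adduct peaks picked by computer and checked manually.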

SMILES	RP-LC retention time [s]
COc1ccc(-n2ncc3c(NC4CC4)ncnc32)cc1	619
CCc1noc2nc(C)n(CC(=O)NCc3ccccc3F)c(=O)c12	788
Cn1nc(C(=O)N2CCCCC2)c2c1CCN(C(=O)CCC(=O)N1CCCCCC1)C2	668
CCCCS(=O)(=O)Nc1ccc2c(c1)nc(-c1ccc(C(=O)NCCC)cc1)n2C	660
CN1C(=O)CCC2(CNC(=O)NCCc3ccccc3)CCCC=C12 (stereo not drawn)	763
Cc1oc(C2CCN(C(=O)Cc3c(F)cccc3Cl)CC2)nc1C(=O)N1CCCCC1	886
COc1ccc(N2CCN(CCNC(=O)c3cccs3)CC2)cc1	557
CN1CCc2nnc(C3CCN(C(=O)Nc4ccc(Cl)cc4C(F)(F)F)C3)n2CC1 (stereo not drawn)	610
O=C(COc1ccc(F)c(F)c1)N1CCC(Nc2cccnc2)C1 (stereo not drawn)	604
O=C(NCc1ccco1)c1ccc2cnn(Cc3cccc(Cl)c3)c2c1	947
Cc1noc(/C=C\c2ccc(S(=O)(=O)NCC3CCCO3)cc2)c1NC(=O)C1CC1 (stereo not drawn)	737
CCc1ccc(S(=O)(=O)Nc2cc(-n3c(C)nc4ccccc4c3=O)ccc2F)s1	797
COc1cc(Cl)c(NC(=O)C2CCN(C(=O)C3Sc4ccccc4NC3=O)CC2)c(OC)c1 (stereo not drawn)	795
CCOC(=O)c1cccc(N2C=C(C(=O)OC)S(=O)(=O)c3ccccc32)c1	858
CCOc1cc(Nc2ccc(NC(=O)c3ccco3)cc2)nc(C)n1	591
CCCN(C)C(=O)c1cc2c(s1)N(CCC)CCCC2	1170
CC(C)S(=O)(=O)N1CCC(c2noc(-c3cccnc3)n2)C1 (stereo not drawn)	730
O=C(NCC(=O)N1CCc2ccccc21)c1ccc(=O)[nH]c1	599
COC(=O)c1c(C)[nH]c(C(=O)N2CCCC(C(=O)NCCc3ccco3)C2)c1C (stereo not drawn)	698
O=C1COc2ccccc2N1Cc1nc(-c2ccccc2Cl)no1	995
CCc1nnc(-c2ccc3ccn(CC(=O)NCc4ccccc4)c3c2)o1	1300
COc1ccc(C(=O)Nc2cnn(C)c(=O)c2N2CCOCC2)cc1Cl	784
O=C(NCc1noc(Cc2ccccc2)n1)c1ccccc1	798

SMILES	RP-LC retention time [s]
CS(=O)(=O)Oc1ccc(Br)c2cccnc12	889
CCn1c(=O)c2cc(C(=O)NCc3cn[nH]c3C)nn2c2ccccc21	781
COc1ccc(Cl)cc1NC(=O)N1CC2CC1C(=O)O2 (stereo not drawn)	699
Cn1nccc1-c1nc(-c2ccc3oc(-c4ccccc4)nc3c2)no1	1230
c1ccc(-c2nc3cc(-c4noc(C5CC5)n4)ccc3o2)cc1	1230
CCn1c(=O)n(Cc2ccccc2Cl)c(=O)c2cnc(-c3ccc(OC)cc3)nc21	1010
O=C(CN1CCCc2nc(C3CC3)ncc2C1=O)NCCCN1CCCC1=O	594
COc1ccc(Br)cc1CNC(=O)C1CCN(C(=O)c2cc3ccsc3[nH]2)CC1	839
O=C(CSc1ncccn1)Nc1nc(-c2ccccc2)cs1	837
CN(C)S(=O)(=O)c1ccc(-c2nnc(NC(=O)c3ccc4ncsc4c3)o2)cc1	669
COc1ccc2c(c1)[C@H]1OCCC[C@H]1C(c1ccc(C(=O)O)cc1)N2 (stereo partly drawn)	820
CCOc1ccccc1NC(=O)Cn1nc2cc(-c3ccc(OC)cc3)nc(C)n2c1=O	1020
O=C(NCc1cc(F)cc(F)c1)C1CCN(c2nnc(-c3ccccc3)o2)CC1	844
CCc1nc(N2CCc3ccccc3C2)ncc1C(=O)O	953
CCOC(=O)c1cccc(NC(=O)c2cnc(-c3ccccc3)nc2-c2ccncc2)c1	924
O=C(NCc1cc(F)cc(F)c1)C1CCN(c2cnc(N3CCCC3)nc2)CC1	674
Cc1c(Br)cncc1C(=O)O	620
CC(C)CNC(=O)c1ccc2c(c1)CCCN2S(C)(=O)=O	774
CC(C)NC(=O)C(=O)NCC(c1ccc2c(c1)CCCN2C)N1CCCCC1 (stereo not drawn)	671
CCNC(=O)c1nc(-c2ccncc2)cs1	574
O=C1c2cccc3cccc(c23)C(=O)N1c1cccnc1	631
CC(C)c1cccc(Nc2nc3ccncc3n(C(C)C)c2=O)c1	707
COc1ccc(C2(C(=O)N3CCC4(CC3)C(OC)CN4c3cccc(F)c3)CC2)cc1 (stereo not drawn)	1090

SMILES	RP-LC retention time [s]
O=C(CSc1nnc(CNC(=O)c2cccc(C(F)(F)F)c2)o1)NCC1CCCO1 (stereo not drawn)	664
COc1ccc(C2=NC(c3ccc(Cl)cc3)C(c3ccc(Cl)cc3)N2C(=O)N2CCNC(=O)C2)c(OC(C)C)c1 (stereo not drawn)	887
COC(=O)c1c(C)[nH]c(C(=O)N2CCCC(C(=O)NCc3cccc(Cl)c3)C2)c1C (stereo not drawn)	798
COc1cc(CN2C[C@@H]3C(=O)N(CCc4ccccc4)C(=O)[C@@H]3C2)cc(OC)c1	753
O=C(Cn1c(=O)oc2ccccc21)N1CCc2nn(CC3CC3)c(=O)n2CC1	682
O=C(Nc1ccc(Cl)cc1)C1CCc2sc(C(=O)N3CCOCC3)cc2C1 (stereo not drawn)	759
Cc1oc(C2CCN(C(=O)C3CCN(S(=O)(=O)N4CCC(C)CC4)CC3)CC2)nc1C(=O)N1CCCC1	861
CC(C)(NC(=O)C1CCCO1)c1nc2c(c(C(N)=O)n1)OCO2 (stereo not drawn)	563
CCOCCCNC(=O)c1nnc(-c2ccc(S(=O)(=O)N3CCC(C)CC3)cc2)o1	924
Cc1ccc(-c2nc3cc(C)ccn3c2Nc2ccc3c(c2)OCCO3)cc1	721
Cc1ccccc1CN1CCN(CC(=O)NCc2ccc3c(c2)OCO3)C(=O)C1=O	715
O=C(Nc1nc(-c2ccc(Cl)cc2)cs1)c1ccc2c(c1)OCO2	1110
COc1ccc(NC(=O)N(C)CCc2noc(COc3cc(C)cc(C)c3)n2)cc1	907
COc1ncccc1CNC(=O)c1cnn2cccnc12	638
CN(C)c1cc(N2CCCC(NC(=O)Cc3cccs3)C2)ncn1 (stereo not drawn)	596
O=C(Nc1ccc2c(c1)CC(C(=O)NCCCc1ccccc1)CO2)c1cccs1 (stereo not drawn)	900
CCc1cccc(C)c1Nc1c(-c2ccc(Cl)cc2)nc2ncccn12	978
O=C(CCSc1ccccc1)N1CC(c2nc(-c3cccc(Cl)c3)no2)C1	1020
Cc1cnc(C2CN(Cc3cccc(F)c3)C2)n1CC1CC1	554
CSc1ncccc1C(=O)N(Cc1ccsc1)Cc1ccccn1	690
Cc1cc2c(N3CCCC(C(=O)NCc4ccccc4Br)C3)nccc2s1 (stereo not drawn)	714
CN(C)CCCNC(=O)C(=O)c1c(-c2ccccc2)cc2ccccn12	620
